Test results reported in ChEMBL document CHEMBL1201862, “PubChem BioAssay data set” (2004).
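Dose response: 5 concentrations. Exposure: 48 h. Format: 96-well plates. Endpoint: linear interpolation; highest concentration if not reached. GI50: concentration for 50% inhibition of growth.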 Calls of active or inactive are those of the source. No stated cut-off is given here; in the data, active = GI50 up to about 1.1 µM and inactive = higher.

Assays:
Assay in all cases: NCI tumour cell line growth inhibition, 48 h
IGROV-1 = test system: IGROV-1
SR = test system: SR
SK-MEL-5 = test system: SK-MEL-5
SF-295 = test system: SF-295
SNB-75 = test system: SNB-75
786-0 = test system: 786-0
OVCAR-3 = test system: OVCAR-3
OVCAR-4 = test system: OVCAR-4
DU-145 = test system: DU-145
RPMI-8226 = test system: RPMI-8226
SF-539 = test system: SF-539
HOP-62 = test system: HOP-62
NCI-H226 = test system: NCI-H226
COLO 205 = test system: COLO 205
NCI-H23 = test system: NCI-H23
A498 = test system: A498
Malme-3M = test system: Malme-3M
SN12C = test system: SN12C
RXF 393 = test system: RXF 393
DLD-1 = test system: DLD-1

Measured: GI50

Cn1c(=O)c(-c2ccccc2)c(O)c2ccccc21
inactive: IGROV-1 > 100 µM | SR 42.5 µM | SK-MEL-5 > 100 µM | SF-295 > 100 µM | 786-0 > 100 µM | OVCAR-3 > 100 µM | OVCAR-4 > 100 µM | DU-145 > 100 µM | RPMI-8226 > 100 µM | SF-539 > 100 µM | HOP-62 > 100 µM | NCI-H226 > 100 µM | COLO 205 > 100 µM | NCI-H23 > 100 µM | A498 > 100 µM | Malme-3M > 100 µM | SN12C > 100 µM | RXF 393 > 100 µM
active: SNB-75 0.92 µM

CCCCN(CCCC)C(=O)C(=O)C(C(=O)c1ccc(OC)cc1)c1ccc(OC)cc1 (stereo unspecified)
inactive: IGROV-1 > 100 µM | SK-MEL-5 69 µM | SF-295 > 100 µM | 786-0 > 100 µM | OVCAR-3 > 100 µM | OVCAR-4 > 100 µM | DLD-1 > 100 µM | SF-539 > 100 µM | HOP-62 > 100 µM | NCI-H226 > 100 µM | COLO 205 > 100 µM | NCI-H23 > 100 µM | Malme-3M > 100 µM | SN12C > 100 µM | RXF 393 35.5 µM

COc1cc(CNC(=O)CCCCCCCC/C=C/Br)ccc1O
inactive: IGROV-1 > 10 µM | SR > 10 µM | SK-MEL-5 > 10 µM | SF-295 > 10 µM | SNB-75 > 10 µM | 786-0 > 10 µM | OVCAR-3 > 10 µM | OVCAR-4 > 10 µM | DU-145 > 10 µM | RPMI-8226 > 10 µM | SF-539 > 10 µM | HOP-62 > 10 µM | NCI-H226 > 10 µM | COLO 205 > 10 µM | NCI-H23 > 10 µM | A498 > 10 µM | Malme-3M > 10 µM | SN12C > 10 µM | RXF 393 > 10 µM

O=C(N[C@@H](Cc1ccccc1)B(O)O)[C@H](Cc1cccc2ccccc12)NC(=O)N1CCOCC1
active: IGROV-1 0.00618 µM | SR 0.00131 µM | SK-MEL-5 0.00154 µM | SF-295 0.00478 µM | SNB-75 < 0.01 µM | 786-0 0.00451 µM | OVCAR-3 0.000891 µM | OVCAR-4 0.00454 µM | DU-145 0.00627 µM | RPMI-8226 0.000412 µM | SF-539 0.000265 µM | HOP-62 0.00524 µM | NCI-H226 0.00029 µM | COLO 205 0.00552 µM | NCI-H23 0.00172 µM | A498 0.00261 µM | Malme-3M 0.00187 µM | SN12C 0.00371 µM | RXF 393 0.00167 µM

CN(C(=O)c1ccco1)C(=S)N1CCN(c2ccccn2)CC1
inactive: IGROV-1 > 100 µM | SK-MEL-5 > 100 µM | SF-295 > 100 µM | SNB-75 > 100 µM | 786-0 > 100 µM | OVCAR-3 > 100 µM | OVCAR-4 > 100 µM | RPMI-8226 > 100 µM | DLD-1 > 100 µM | SF-539 > 100 µM | HOP-62 > 100 µM | NCI-H226 > 100 µM | COLO 205 > 100 µM | NCI-H23 > 100 µM | Malme-3M > 100 µM | SN12C > 100 µM | RXF 393 > 100 µM

c1ccc2c(c1)nc1n2CNCC1
inactive: IGROV-1 94 µM | SR 29.7 µM | SK-MEL-5 > 100 µM | SF-295 > 100 µM | SNB-75 90.8 µM | 786-0 > 100 µM | OVCAR-3 > 100 µM | OVCAR-4 > 100 µM | DU-145 43.3 µM | RPMI-8226 26.4 µM | SF-539 > 100 µM | HOP-62 > 100 µM | NCI-H226 > 100 µM | COLO 205 > 100 µM | NCI-H23 > 100 µM | A498 > 100 µM | Malme-3M 63.7 µM | SN12C > 100 µM | RXF 393 90.8 µM

NC(=O)c1ncn(Cc2ccccc2)c1CNC(N)=S
inactive: IGROV-1 > 100 µM | SR > 100 µM | SK-MEL-5 > 100 µM | SF-295 > 100 µM | SNB-75 91.4 µM | 786-0 > 100 µM | OVCAR-3 > 100 µM | OVCAR-4 > 100 µM | RPMI-8226 > 100 µM | DLD-1 > 100 µM | SF-539 > 100 µM | NCI-H226 > 100 µM | COLO 205 > 100 µM | NCI-H23 > 100 µM | SN12C > 100 µM | RXF 393 > 100 µM

CCC1=CC2CN3CCc4c([nH]c5ccccc45)C(C(=O)OC)(C2)C13 (stereo unspecified)
inactive: IGROV-1 47.3 µM | SK-MEL-5 40.7 µM | SF-295 45.2 µM | SNB-75 48.4 µM | OVCAR-3 42.8 µM | OVCAR-4 37.2 µM | RPMI-8226 18.5 µM | DLD-1 45.9 µM | SF-539 50.9 µM | HOP-62 43.6 µM | NCI-H226 11 µM | COLO 205 39.4 µM | NCI-H23 45.6 µM | A498 48.1 µM | Malme-3M 50.4 µM | SN12C 47.4 µM | RXF 393 35.7 µM

O=C(CCC(=O)Nc1ccc(Cl)c(Cl)c1)CC(=O)c1ccc2ccccc2c1
inactive: IGROV-1 > 100 µM | SK-MEL-5 > 100 µM | SF-295 > 100 µM | SNB-75 26.3 µM | 786-0 > 100 µM | OVCAR-3 > 100 µM | OVCAR-4 > 100 µM | RPMI-8226 39.8 µM | DLD-1 > 100 µM | SF-539 > 100 µM | HOP-62 > 100 µM | NCI-H226 > 100 µM | NCI-H23 > 100 µM | A498 > 100 µM | Malme-3M > 100 µM | SN12C > 100 µM | RXF 393 > 100 µM

C/C(=N\NC(=O)C[N+](C)(C)C)c1sc(-c2cccnc2)nc1C
inactive: IGROV-1 > 100 µM | SK-MEL-5 > 100 µM | SF-295 > 100 µM | SNB-75 > 100 µM | 786-0 > 100 µM | OVCAR-3 > 100 µM | RPMI-8226 > 100 µM | DLD-1 > 100 µM | SF-539 > 100 µM | HOP-62 > 100 µM | NCI-H226 > 100 µM | COLO 205 > 100 µM | NCI-H23 > 100 µM | Malme-3M > 100 µM | RXF 393 52.1 µM

COC(=O)c1ccc2c(c1)CC1(C2)Cc2ccccc2C1=O (stereo unspecified)
inactive: IGROV-1 33.3 µM | SR 22.2 µM | SK-MEL-5 17.9 µM | SF-295 39.4 µM | SNB-75 24.3 µM | 786-0 40.2 µM | OVCAR-3 29.1 µM | OVCAR-4 32.3 µM | DU-145 36.3 µM | RPMI-8226 13.4 µM | SF-539 38.6 µM | HOP-62 38.5 µM | NCI-H226 15.1 µM | COLO 205 18 µM | NCI-H23 29.5 µM | A498 37.6 µM | Malme-3M 20.8 µM | SN12C 25.9 µM | RXF 393 33.3 µM

[O-]/[N+](=C\c1ccccc1OC(=S)S)c1ccc(Cl)cc1
inactive: IGROV-1 12.1 µM | SR 21.8 µM | SNB-75 > 100 µM | 786-0 14.6 µM | OVCAR-3 18.7 µM | OVCAR-4 13.9 µM | DU-145 42.9 µM | RPMI-8226 5.7 µM | SF-539 35.6 µM | HOP-62 47.9 µM | NCI-H226 48.4 µM | COLO 205 3.92 µM | NCI-H23 23.8 µM | A498 59.8 µM | Malme-3M > 100 µM | SN12C 24.8 µM | RXF 393 45.7 µM
active: SK-MEL-5 0.224 µM | SF-295 0.177 µM

CC1=C2N3C[C@@H](n4c(=O)n(C)c(=O)n43)C23CCC1n1c(=O)n(C)c(=O)n13
inactive: IGROV-1 > 100 µM | SK-MEL-5 > 100 µM | SF-295 > 100 µM | SNB-75 > 100 µM | 786-0 35.6 µM | OVCAR-4 > 100 µM | RPMI-8226 42.7 µM | DLD-1 69.2 µM | SF-539 > 100 µM | HOP-62 > 100 µM | NCI-H226 > 100 µM | COLO 205 48 µM | NCI-H23 > 100 µM | A498 > 100 µM | Malme-3M > 100 µM | SN12C > 100 µM

COc1cccc2c1C(=O)c1c(O)c3c(c(O)c1C2=O)C[C@](O)(C(=O)CO)CC3OC1CC(N)C(OC2CCCCO2)C(C)O1 (stereo partly specified)
active: IGROV-1 0.424 µM | SK-MEL-5 0.115 µM | SF-295 0.0483 µM | SNB-75 0.243 µM | OVCAR-3 0.828 µM | OVCAR-4 0.659 µM | RPMI-8226 0.112 µM | DLD-1 0.675 µM | SF-539 0.123 µM | HOP-62 0.212 µM | NCI-H226 0.0805 µM | COLO 205 0.329 µM | NCI-H23 0.051 µM | A498 < 0.0411 µM | Malme-3M 0.0752 µM | SN12C 0.148 µM | RXF 393 0.43 µM

Nc1ncnc2c(C3OC(CO)C(O)C3O)n[nH]c12 (stereo unspecified)
active: IGROV-1 0.445 µM | SF-295 0.427 µM | SNB-75 0.196 µM | OVCAR-4 0.582 µM | RPMI-8226 0.159 µM | DLD-1 0.0575 µM | SF-539 0.46 µM | HOP-62 0.0509 µM | A498 0.484 µM | Malme-3M 0.432 µM | SN12C 0.0652 µM | RXF 393 0.201 µM
inactive: SK-MEL-5 1.41 µM | COLO 205 2.42 µM | NCI-H23 1.12 µM

CN(C)c1ccc(C(=C2C=CC(=[N+](C)C)C=C2)c2ccc(N(C)C)cc2)cc1 [GENTIAN VIOLET]
active: IGROV-1 0.21 µM | SR 0.211 µM | SK-MEL-5 0.0809 µM | SF-295 0.0402 µM | SNB-75 0.182 µM | 786-0 0.0923 µM | OVCAR-4 0.264 µM | RPMI-8226 0.0237 µM | DLD-1 0.0673 µM | SF-539 0.258 µM | HOP-62 0.375 µM | NCI-H226 0.179 µM | COLO 205 0.189 µM | NCI-H23 0.0594 µM | Malme-3M 0.245 µM | SN12C 0.21 µM | RXF 393 0.201 µM
